According to ChEMBL document CHEMBL1201862, “PubChem BioAssay data set” (2004):
Activity calls are given as the source filed them.

Experiments:
[1] = target: Heat shock protein HSP 90-alpha (Homo sapiens, UniProt P07900); type: functional, organism-based
HEK293 [2] = assay: NOD1 signaling inhibitors, primary screen, cell-based, luminescence, uHTS (AID 1578); type: functional; details: Homo sapiens
Apelin receptor = Apelin receptor (Homo sapiens, UniProt P35414); assay: APJ beta-arrestin recruitment antagonism, SAR follow-up, selectivity assay for CCR6 antagonist project, cell-based, luminescent, enzyme-fragment complementation (AID 588359); type: functional
[3] = target: T1, Replicative DNA helicase DnaB (Mycobacterium tuberculosis, UniProt P9WMR3); assay: DnaB intein splicing inhibitors, dose response, biochemical, cell-free fluorescence (AID 449749); type: functional
T1 sequence (P9WMR3 whole entry): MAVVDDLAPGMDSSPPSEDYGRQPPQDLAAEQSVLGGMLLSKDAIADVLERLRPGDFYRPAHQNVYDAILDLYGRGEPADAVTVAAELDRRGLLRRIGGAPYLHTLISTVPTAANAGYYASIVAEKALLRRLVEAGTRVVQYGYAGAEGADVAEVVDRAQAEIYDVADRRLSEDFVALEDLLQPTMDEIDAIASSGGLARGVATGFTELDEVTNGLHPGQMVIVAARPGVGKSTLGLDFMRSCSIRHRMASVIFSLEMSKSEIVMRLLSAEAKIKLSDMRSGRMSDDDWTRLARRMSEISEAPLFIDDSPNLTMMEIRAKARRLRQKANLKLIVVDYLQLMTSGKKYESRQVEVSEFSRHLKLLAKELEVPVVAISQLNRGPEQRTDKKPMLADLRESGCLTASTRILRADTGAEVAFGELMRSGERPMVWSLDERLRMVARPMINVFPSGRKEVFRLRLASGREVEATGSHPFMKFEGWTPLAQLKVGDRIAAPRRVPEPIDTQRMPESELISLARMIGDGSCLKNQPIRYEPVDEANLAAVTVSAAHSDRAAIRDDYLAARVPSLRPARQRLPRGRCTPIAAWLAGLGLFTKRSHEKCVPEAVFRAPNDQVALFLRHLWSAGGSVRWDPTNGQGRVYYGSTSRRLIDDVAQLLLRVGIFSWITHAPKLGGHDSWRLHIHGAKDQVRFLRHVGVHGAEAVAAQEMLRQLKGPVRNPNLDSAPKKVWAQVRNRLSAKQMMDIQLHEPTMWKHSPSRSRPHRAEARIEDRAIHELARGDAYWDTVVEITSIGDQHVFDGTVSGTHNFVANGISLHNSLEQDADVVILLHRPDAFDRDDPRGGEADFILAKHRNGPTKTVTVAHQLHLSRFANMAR

Beta Lactamase [4] = target: T2, Beta Lactamase (Pseudomonas aeruginosa, UniProt Q932Y6); assay: beta-lactamase reporter inhibitor potency, dose response, artefact control for TLR9-MyD88 binding inhibitor project, BLA reporter cells, FRET fluorescence (AID 588341); type: cell-based;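 further: cell based assay in CHO-K1 cells stably expressing beta-lactamase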
[5] = target: Nucleotide-binding oligomerization domain-containing protein 2 (Homo sapiens, UniProt Q9HC29); assay: NOD2 signaling inhibitors, cell-based, luminescence, uHTS, HEK293 (AID 1566); type: functional
Protein RecA = target: T3, Protein RecA (Mycobacterium tuberculosis, UniProt P9WHJ3); assay: Fluorescence Cell-Free Homogeneous Dose Retest to Identify Inhibitors of RecA-Intein Splicing Activity. [Related pubchem assays (depositor defined):AID2097, AID2223, AID489010, AID492950]; type: functional
T3 sequence (P9WHJ3 whole entry): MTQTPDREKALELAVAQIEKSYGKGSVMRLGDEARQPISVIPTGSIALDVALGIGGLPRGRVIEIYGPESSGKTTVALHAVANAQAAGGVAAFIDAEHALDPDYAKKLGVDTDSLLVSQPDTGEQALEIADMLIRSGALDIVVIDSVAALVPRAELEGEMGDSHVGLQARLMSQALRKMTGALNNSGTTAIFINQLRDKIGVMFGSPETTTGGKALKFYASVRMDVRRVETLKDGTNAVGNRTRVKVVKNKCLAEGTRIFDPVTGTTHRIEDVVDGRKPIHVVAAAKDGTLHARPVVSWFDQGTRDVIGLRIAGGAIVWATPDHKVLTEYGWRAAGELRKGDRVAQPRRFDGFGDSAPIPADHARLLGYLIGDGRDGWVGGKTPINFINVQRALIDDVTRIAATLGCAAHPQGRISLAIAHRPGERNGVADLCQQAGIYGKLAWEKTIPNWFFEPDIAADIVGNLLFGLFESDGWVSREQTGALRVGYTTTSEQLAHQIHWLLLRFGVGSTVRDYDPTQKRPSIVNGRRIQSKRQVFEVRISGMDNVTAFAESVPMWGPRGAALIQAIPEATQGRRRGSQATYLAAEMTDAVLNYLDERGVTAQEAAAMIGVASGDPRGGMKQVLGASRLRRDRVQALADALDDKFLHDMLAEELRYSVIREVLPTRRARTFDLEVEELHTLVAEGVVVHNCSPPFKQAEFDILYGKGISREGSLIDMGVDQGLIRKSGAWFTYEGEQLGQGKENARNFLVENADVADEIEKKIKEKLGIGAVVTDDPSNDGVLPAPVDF

Beta-galactosidase = Beta-galactosidase (Escherichia coli, UniProt Q8VNN2); assay: beta-galactosidase enzyme inhibitors and activators, dose response, artefact control for CCR6 antagonist project, biochemical, E. coli enzyme, set 3 (AID 504712); type: functional
[6] = HepG2 cell cytotoxicity, dose response, cytotoxicity control for Shn3 inhibitor project, CellTiter-Glo, cherry-picked (AID 624134); type: functional, cell-based
HEK293 [7] = assay: cells; type: functional, cell-based; details: Homo sapiens
[8] = target: ATP-binding cassette sub-family B member 6 (Homo sapiens, UniProt Q9NP58); assay: ABCB6 transporter inhibitors, porphyrin accumulation, dose response, flow cytometry, K562-ABCB6 cells, cherry pick 02 (AID 624487); type: functional; details: read-out: EC50_MICROM
[9] = control 3'UTR Renilla luciferase suppression, dose response, counter-screen for Shn3 inhibitor project, cell-based, Clone20-Shn3RL, cherry-picked (AID 624133); type: functional
[10] = Luminescence Cell-Based Dose Retest to Confirm Inhibitors of Cancer Stem Cells. [Related pubchem assays (depositor defined):AID2717, AID2721]; type: functional; details: Homo sapiens
[11] = Shn3 3'UTR reporter inhibitors, dose response, cell-based, Clone20 osteoblasts, firefly luciferase, cherry-picked (AID 624132); type: functional;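 further: firefly luciferase luminescence from reporter carrying the Shn3 3'UTR in osteoblasts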
HEK293 [12] = assay: NOD2 signaling inhibitors in MDP-stimulated cells, cell-based, uHTS, luminescence (AID 2001); type: functional; details: Homo sapiens
CHO = assay: cytotoxicity in TLR9-MyD88 CHO cells, dose response, cytotoxicity control for TLR9-MyD88 binding inhibitor project, cell-based, luminescence (AID 588339); type: functional, hamster; details: Cricetulus griseus;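 further: CHO cells stably coexpressing TLR9 and MyD88 fusions from primary screen; compound exposure lasted 48 hours before viability readout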
[13] = target: Broad substrate specificity ATP-binding cassette transporter ABCG2 (Homo sapiens, UniProt Q9UNQ0); assay: ABCG2 efflux pump inhibitors, dose response, Ig-MXP3 cells, flow cytometry (AID 1690); type: functional
[14] = target: ATP-dependent translocase ABCB1 (Homo sapiens, UniProt P08183); assay: ABCB1 efflux pump inhibitor potency, dose response, Jurkat-DNR cells, JC-1, flow cytometry (AID 1689); type: functional
[15] = target: Voltage-dependent T-type calcium channel subunit alpha-1H (Homo sapiens, UniProt O95180); type: functional;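 further: channel activity triggered by adding a high calcium stimulation buffer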
Beta Lactamase [16] = target: T2, Beta Lactamase
[17] = system: Streptococcus sp. 'group A'; assay: growth inhibition of control SK(-) GAS strain, dose response, counter-screen for streptokinase expression inhibitor project, luminescence, kanamycin, BacTiterGlo, confirmation (AID 1900); type: functional, organism-based
Beta-lactamase [18] = target: Beta-lactamase (Pseudomonas aeruginosa, UniProt Q79MP6);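 further: biochemical dose-response test of metallo-beta-lactamase enzyme inhibition, read out by epi-absorbance; purified recombinant IMP-1 metallo-beta-lactamase with nitrocefin as substrate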
Streptococcus = assay: Group A Streptococcus viability loss, dose response, counter-screen for streptokinase expression inhibitor project, luminescence, BacTiterGlo (AID 1915); type: functional, organism-based;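 further: potency for reduction of bacterial viability or growth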
[19] = target: UDP-galactopyranose mutase (Mycobacterium tuberculosis, UniProt P9WIQ1); assay: Inhibitors of Mycobacterium tuberculosis UDP-galactopyranose mutase (UGM) enzyme Measured in Biochemical System Using Plate Reader - 2105-02_Inhibitor_Dose_CherryPick_Activity. [Related pubchem assays (depositor defined):AID504439]
ORF 73 = target: T4, ORF 73 (Human herpesvirus 8, UniProt O40947); assay: inhibitors of C-LANA binding to LBS DNA, dose response, biochemical, fluorescence polarization, cherry-picked samples (AID 504725); set-up: species or system Human gammaherpesvirus 8;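 further: fluorescence polarization of a labeled DNA duplex reporting LANA DNA binding; potency is for inhibitors that block LANA binding to the DNA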
T4 sequence (O40947 whole entry): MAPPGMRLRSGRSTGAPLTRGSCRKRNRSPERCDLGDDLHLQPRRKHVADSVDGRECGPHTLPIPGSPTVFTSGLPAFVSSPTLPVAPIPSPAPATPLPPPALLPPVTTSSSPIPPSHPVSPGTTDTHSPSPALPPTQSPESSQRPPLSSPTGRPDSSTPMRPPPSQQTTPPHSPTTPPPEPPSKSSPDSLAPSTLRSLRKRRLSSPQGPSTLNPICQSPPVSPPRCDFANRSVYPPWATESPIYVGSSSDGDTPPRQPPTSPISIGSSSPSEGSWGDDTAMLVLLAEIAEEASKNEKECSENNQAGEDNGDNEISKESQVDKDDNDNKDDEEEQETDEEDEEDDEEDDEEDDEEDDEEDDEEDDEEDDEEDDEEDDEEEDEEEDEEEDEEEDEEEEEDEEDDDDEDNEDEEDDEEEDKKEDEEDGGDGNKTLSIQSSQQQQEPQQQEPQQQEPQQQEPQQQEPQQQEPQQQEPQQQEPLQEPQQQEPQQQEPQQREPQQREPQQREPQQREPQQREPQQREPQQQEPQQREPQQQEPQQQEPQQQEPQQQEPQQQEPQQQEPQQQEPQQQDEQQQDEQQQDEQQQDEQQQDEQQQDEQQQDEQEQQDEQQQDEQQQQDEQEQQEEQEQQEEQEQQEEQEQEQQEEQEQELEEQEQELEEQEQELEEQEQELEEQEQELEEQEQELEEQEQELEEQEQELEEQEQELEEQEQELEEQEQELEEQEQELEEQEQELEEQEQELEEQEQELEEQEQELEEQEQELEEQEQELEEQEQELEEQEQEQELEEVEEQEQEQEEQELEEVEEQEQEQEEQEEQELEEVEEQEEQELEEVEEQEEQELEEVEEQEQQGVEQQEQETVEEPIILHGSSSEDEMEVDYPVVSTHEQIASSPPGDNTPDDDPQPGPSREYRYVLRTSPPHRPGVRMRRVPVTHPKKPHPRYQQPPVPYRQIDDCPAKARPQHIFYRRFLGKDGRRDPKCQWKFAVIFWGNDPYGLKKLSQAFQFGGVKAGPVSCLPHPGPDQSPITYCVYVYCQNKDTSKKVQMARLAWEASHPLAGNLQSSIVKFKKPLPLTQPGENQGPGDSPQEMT

Streptokinase A = target: T5, Streptokinase A (Streptococcus pyogenes serotype M1, UniProt P10520); assay: S. pyogenes streptokinase expression inhibitors, potency, dose response, plasminogen activation absorbance, OD405 (AID 1914); type: functional, Streptococcus pyogenes M1 GAS;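 further: secreted streptokinase activity via plasminogen activation per viability signal from cell pellet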
T5 sequence (P10520 whole entry): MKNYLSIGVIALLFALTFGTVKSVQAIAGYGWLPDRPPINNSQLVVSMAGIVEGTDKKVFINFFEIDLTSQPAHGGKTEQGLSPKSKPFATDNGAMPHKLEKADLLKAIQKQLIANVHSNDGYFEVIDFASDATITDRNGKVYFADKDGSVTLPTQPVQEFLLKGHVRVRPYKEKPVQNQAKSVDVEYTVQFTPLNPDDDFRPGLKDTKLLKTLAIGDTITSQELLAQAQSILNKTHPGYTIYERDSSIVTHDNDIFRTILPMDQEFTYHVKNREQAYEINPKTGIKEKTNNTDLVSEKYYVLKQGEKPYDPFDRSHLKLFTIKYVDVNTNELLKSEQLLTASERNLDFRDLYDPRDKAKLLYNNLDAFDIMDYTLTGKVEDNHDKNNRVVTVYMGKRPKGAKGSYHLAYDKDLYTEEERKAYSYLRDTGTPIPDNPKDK

Beta-lactamase [20] = target: Beta-lactamase (Salmonella choleraesuis (strain SC-B67), UniProt Q5J463)
[21] = target: T6, Beta-2 adrenergic receptor (Homo sapiens, UniProt P07550); assay: beta2AR agonists driving receptor internalization, dose response, cell-based, FAP fluorogen, flow cytometry, cherry pick 1 (AID 588763); type: functional
[22] = target: T6, Beta-2 adrenergic receptor; assay: Dose response for HTS for Beta-2AR agonists via FAP method from Powderset1.; type: functional
HeLa = assay: HeLa cell cytotoxicity, dose response, cytotoxicity control, ATP luminescence, cherry-pick samples (AID 687004); type: functional, cell-based; details: Homo sapiens
A549 = assay: A549 cell toxicity, dose response, cytotoxicity control, plate reader, cherry-pick samples (AID 687028); type: functional, cell-based; details: Homo sapiens

T2 sequence (Q932Y6 whole entry, the tested form may be a part): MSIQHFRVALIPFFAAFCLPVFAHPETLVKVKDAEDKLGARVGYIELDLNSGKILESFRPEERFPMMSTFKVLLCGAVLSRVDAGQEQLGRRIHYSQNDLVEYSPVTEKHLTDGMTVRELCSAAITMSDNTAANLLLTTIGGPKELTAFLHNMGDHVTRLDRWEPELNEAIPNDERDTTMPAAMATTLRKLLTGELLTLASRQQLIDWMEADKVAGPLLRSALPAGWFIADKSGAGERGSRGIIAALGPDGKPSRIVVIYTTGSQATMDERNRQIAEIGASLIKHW
T6 sequence (P07550 whole entry): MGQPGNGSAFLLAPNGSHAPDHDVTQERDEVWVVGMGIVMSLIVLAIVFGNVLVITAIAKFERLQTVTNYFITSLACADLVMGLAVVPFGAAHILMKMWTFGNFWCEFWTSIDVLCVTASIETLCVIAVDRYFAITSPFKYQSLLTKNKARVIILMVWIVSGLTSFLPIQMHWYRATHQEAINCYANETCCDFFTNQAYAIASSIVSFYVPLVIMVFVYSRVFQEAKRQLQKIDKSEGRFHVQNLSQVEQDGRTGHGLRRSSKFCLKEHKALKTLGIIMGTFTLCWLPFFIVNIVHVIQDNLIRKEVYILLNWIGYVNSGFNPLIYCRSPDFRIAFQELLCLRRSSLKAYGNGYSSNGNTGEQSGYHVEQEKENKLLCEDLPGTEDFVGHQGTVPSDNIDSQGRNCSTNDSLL
Sequence of Beta-lactamase (Salmonella choleraesuis (strain SC-B67), UniProt Q5J463) (Q5J463 whole entry): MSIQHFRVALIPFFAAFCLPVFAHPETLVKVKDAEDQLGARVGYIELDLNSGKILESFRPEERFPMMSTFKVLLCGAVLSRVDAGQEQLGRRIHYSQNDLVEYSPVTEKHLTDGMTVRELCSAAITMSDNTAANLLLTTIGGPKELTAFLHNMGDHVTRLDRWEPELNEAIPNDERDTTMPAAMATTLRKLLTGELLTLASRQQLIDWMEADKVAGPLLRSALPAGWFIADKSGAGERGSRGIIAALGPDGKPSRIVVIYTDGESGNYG
Sequence of Broad substrate specificity ATP-binding cassette transporter ABCG2 (Q9UNQ0 whole entry): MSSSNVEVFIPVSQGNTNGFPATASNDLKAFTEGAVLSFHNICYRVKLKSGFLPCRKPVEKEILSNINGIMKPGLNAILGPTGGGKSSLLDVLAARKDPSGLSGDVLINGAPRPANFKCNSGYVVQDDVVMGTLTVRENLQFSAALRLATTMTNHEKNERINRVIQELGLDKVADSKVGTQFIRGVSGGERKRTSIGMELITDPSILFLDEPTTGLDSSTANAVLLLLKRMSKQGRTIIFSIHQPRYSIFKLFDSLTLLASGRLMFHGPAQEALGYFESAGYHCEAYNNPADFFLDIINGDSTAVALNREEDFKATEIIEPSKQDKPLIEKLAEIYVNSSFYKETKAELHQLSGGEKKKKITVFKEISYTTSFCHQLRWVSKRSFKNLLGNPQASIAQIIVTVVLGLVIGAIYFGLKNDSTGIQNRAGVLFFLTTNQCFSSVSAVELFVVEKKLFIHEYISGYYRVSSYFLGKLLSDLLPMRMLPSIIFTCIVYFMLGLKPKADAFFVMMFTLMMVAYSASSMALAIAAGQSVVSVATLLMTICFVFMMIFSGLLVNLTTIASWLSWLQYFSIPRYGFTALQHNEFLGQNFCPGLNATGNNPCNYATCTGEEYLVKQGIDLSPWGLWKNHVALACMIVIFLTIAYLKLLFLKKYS
Sequence of Voltage-dependent T-type calcium channel subunit alpha-1H (O95180 whole entry): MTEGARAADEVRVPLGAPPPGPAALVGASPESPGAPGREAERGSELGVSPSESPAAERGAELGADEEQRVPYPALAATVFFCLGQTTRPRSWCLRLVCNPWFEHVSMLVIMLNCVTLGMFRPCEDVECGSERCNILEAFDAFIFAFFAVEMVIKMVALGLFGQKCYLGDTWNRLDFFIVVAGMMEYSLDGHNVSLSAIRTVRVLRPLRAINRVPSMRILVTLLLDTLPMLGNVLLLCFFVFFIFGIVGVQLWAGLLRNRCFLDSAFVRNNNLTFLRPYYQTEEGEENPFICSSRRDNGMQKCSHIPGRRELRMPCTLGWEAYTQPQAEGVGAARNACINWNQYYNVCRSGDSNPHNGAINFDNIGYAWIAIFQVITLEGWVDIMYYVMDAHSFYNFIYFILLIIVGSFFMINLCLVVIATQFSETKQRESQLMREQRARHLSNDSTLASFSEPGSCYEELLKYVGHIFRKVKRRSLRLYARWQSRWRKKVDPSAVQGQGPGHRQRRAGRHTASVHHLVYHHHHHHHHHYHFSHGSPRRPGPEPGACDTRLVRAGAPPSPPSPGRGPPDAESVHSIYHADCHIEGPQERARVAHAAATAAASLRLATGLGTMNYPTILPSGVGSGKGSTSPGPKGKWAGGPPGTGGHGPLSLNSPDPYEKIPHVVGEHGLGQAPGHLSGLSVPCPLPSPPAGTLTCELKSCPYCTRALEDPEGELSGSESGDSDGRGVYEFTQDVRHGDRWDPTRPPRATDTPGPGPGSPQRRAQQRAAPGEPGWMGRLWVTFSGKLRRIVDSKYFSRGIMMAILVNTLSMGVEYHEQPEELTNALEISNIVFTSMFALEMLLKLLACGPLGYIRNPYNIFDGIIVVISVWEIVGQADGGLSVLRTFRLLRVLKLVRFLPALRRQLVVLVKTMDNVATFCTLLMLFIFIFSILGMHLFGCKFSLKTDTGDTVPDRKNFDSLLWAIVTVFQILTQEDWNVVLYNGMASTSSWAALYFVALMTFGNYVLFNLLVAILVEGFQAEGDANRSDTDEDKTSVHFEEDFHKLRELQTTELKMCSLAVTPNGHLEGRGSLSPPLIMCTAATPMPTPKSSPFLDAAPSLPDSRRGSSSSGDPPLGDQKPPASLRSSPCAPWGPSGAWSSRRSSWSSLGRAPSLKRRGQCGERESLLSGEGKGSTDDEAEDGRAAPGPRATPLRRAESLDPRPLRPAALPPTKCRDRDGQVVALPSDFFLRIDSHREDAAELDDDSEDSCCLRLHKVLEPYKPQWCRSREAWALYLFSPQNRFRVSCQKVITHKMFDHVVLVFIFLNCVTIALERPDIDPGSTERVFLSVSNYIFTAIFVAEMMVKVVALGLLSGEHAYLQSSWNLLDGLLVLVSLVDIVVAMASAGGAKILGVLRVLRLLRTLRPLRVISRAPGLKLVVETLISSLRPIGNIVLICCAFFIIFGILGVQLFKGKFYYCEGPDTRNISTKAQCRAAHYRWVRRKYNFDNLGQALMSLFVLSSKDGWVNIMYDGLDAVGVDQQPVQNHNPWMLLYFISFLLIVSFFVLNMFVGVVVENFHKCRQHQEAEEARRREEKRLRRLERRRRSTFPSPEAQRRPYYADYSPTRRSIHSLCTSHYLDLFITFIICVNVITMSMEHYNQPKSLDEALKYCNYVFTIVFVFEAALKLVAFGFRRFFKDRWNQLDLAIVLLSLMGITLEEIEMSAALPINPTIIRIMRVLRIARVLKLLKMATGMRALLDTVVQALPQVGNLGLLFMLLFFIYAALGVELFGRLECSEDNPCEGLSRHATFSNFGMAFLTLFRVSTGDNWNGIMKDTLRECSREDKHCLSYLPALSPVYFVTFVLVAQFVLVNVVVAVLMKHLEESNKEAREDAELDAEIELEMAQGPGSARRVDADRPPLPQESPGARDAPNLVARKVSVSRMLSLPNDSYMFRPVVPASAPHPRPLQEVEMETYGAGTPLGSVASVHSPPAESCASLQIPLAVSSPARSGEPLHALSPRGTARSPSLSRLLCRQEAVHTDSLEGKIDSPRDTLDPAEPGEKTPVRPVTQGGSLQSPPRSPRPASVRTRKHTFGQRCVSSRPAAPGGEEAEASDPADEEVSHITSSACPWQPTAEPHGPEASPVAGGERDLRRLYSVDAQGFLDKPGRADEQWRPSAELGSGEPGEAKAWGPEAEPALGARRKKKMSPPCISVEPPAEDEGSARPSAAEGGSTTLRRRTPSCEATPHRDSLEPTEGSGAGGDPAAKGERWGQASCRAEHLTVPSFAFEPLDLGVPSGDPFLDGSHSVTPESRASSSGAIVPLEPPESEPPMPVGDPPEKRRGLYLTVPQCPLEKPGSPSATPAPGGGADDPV
Sequence of UDP-galactopyranose mutase (P9WIQ1 whole entry): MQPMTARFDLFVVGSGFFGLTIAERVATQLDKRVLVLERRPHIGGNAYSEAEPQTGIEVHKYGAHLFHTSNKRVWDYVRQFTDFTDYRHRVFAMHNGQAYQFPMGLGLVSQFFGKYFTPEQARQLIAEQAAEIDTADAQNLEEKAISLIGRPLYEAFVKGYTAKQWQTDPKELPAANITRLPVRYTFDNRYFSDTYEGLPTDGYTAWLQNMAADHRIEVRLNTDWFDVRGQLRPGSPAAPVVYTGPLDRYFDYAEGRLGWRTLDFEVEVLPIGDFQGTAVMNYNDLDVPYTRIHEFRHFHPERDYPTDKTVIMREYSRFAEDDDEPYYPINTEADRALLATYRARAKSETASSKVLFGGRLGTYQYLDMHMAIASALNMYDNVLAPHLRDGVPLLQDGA
Sequence of Beta-lactamase (Pseudomonas aeruginosa, UniProt Q79MP6) (Q79MP6 whole entry): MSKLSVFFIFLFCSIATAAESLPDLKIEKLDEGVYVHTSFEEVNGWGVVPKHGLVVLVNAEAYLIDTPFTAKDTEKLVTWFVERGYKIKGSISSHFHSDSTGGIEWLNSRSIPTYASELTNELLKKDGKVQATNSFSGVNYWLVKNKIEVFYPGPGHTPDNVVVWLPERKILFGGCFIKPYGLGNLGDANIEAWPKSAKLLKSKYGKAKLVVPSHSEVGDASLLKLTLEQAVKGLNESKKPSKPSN
Sequence of Apelin receptor (P35414 whole entry, the tested form may be a part): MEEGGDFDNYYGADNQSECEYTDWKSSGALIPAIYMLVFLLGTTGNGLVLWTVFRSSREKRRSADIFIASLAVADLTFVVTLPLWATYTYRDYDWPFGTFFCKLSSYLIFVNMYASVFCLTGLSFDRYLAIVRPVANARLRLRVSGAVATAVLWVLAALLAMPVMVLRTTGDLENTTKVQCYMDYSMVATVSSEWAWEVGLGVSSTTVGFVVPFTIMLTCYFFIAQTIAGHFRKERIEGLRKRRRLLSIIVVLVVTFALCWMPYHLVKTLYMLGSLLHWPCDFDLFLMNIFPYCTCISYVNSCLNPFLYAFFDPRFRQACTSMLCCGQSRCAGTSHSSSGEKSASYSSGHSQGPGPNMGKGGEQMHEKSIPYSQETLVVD

Cc1ccccc1CS(=O)(=O)c1ncc(Cl)c(C(=O)Nc2ccc(F)cc2)n1
active: AC50 [1] 2.41 µM | EC50 (HEK293 [2]) 8.92 µM | IC50 (Apelin receptor) 19.7 µM | AC50 [3] 1.22 µM | IC50 (Beta Lactamase [4]) 6.25 µM | EC50 (Protein RecA) 2.79 µM | AC50 [6] 40.4 µM | EC50 [8] 30.5 µM | AC50 [9] 11.5 µM | AC50 [10] 2.2 µM | AC50 [11] 3 µM | IC50 (CHO) 4.01 µM
inactive: EC50 [5] > 20 µM | IC50 (Beta-galactosidase) > 66.6 µM | IC50 (HEK293 [7]) > 20 µM | IC50 (HEK293 [12]) 10 µM

CCOc1ccc(NC(=O)c2cccc3c2C(=O)N(CCOC)C3)cc1
active: EC50 [13] 1.6 µM
inactive: EC50 [14] 8.31 µM

CN1C(=O)/C(=N\CCc2ccccc2)c2c3ccccc3c(O)c3cccc1c23
> 150 µM (not active): EC50 (Streptococcus) | EC50 (Streptokinase A)
active: EC50 [15] 1.6 µM | IC50 (Beta Lactamase [16]) 9.24 µM | EC50 [17] 11.3 µM | IC50 (Beta Lactamase [4]) 5.98 µM | AC50 [19] 0.73 µM | AC50 (ORF 73) 0.902 µM | IC50 (Beta-lactamase [20]) 2.19 µM
inactive: IC50 (Beta-lactamase [18]) 11.5 µM | IC50 (CHO) > 49.8 µM

CCc1ccc(CN2CCC(Oc3ccc(C(=O)N4CCCCC4)cc3)CC2)cc1
active: EC50 [21] 1.75 µM | EC50 [22] 1.83 µM

CC(C)NC(=O)Nc1ccc2c(c1)CC(=O)N([C@@H](C)CO)C[C@@H](C)[C@@H](CN(C)Cc1ccc(Oc3ccccc3)cc1)O2
active: AC50 (HeLa) 38.8 µM

Cc1ccc(S(=O)(=O)N(C)C[C@@H]2OCCCC[C@H](C)Oc3ccc(NS(=O)(=O)c4c(C)noc4C)cc3C(=O)N([C@H](C)CO)C[C@@H]2C)cc1
active: AC50 (A549) 25.1 µM
